Reference: PubChem BioAssay (NCI)
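Five compound concentrations were applied to cells in 96-well plates for 48 hours; endpoints were derived by simple linear interpolation of the resulting dose-response curve. TGI is the concentration that stops growth completely.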

Columns and labels:
Assay in all cases: NCI anticancer screen, dose series, 48 h
SF-295 CNS = system: SF-295 CNS
SN12C renal = system: SN12C renal
SR leukemia = system: SR leukemia
HOP-62 NSCLC = system: HOP-62 NSCLC
NCI-H23 lung = system: NCI-H23 lung
SNB-19 CNS = system: SNB-19 CNS
K-562 leukemia = system: K-562 leukemia
SK-MEL-2 melanoma = system: SK-MEL-2 melanoma
UACC-62 melanoma = system: UACC-62 melanoma
UACC-257 melanoma = system: UACC-257 melanoma
NCI-H226 lung = system: NCI-H226 lung
MALME-3M melanoma = system: MALME-3M melanoma
HCT-15 colon = system: HCT-15 colon
SF-539 CNS = system: SF-539 CNS
CAKI-1 renal = system: CAKI-1 renal

Measured: TGI

O=C(CSc1nnc(-c2ccc(N=Cc3ccc(Cl)cc3)cc2)o1)Nc1ccccc1
> 100 µM: SF-295 CNS | SN12C renal | SR leukemia | HOP-62 NSCLC | NCI-H23 lung | SNB-19 CNS | K-562 leukemia | SK-MEL-2 melanoma | UACC-62 melanoma | UACC-257 melanoma | NCI-H226 lung | MALME-3M melanoma | HCT-15 colon

CC(=O)NNc1nc(C)c(C(/C=C/c2ccccc2O)=N/NC(=O)c2ccncc2)s1
> 100 µM: SF-295 CNS | SN12C renal | SR leukemia | HOP-62 NSCLC | NCI-H23 lung | SNB-19 CNS | SF-539 CNS | SK-MEL-2 melanoma | UACC-62 melanoma | UACC-257 melanoma | NCI-H226 lung | MALME-3M melanoma | HCT-15 colon | CAKI-1 renal

CC(C)(C)c1cc(N=NC(=S)NCc2ccccc2)cc(C(C)(C)C)c1O
> 100 µM: SF-295 CNS | SN12C renal | SR leukemia | HOP-62 NSCLC | NCI-H23 lung | SNB-19 CNS | K-562 leukemia | SF-539 CNS | SK-MEL-2 melanoma | UACC-62 melanoma | UACC-257 melanoma | NCI-H226 lung | MALME-3M melanoma | HCT-15 colon

O=C(n1[nH]c(=O)n(-c2ccc([N+](=O)[O-])cc2)c1=O)C(Cl)(Cl)Cl
> 75 µM: SF-295 CNS | SN12C renal | SR leukemia | HOP-62 NSCLC | NCI-H23 lung | SNB-19 CNS | K-562 leukemia | SK-MEL-2 melanoma | UACC-62 melanoma | UACC-257 melanoma | NCI-H226 lung | MALME-3M melanoma | HCT-15 colon | CAKI-1 renal

CC[N+](CC)(CC)Cc1cn(S(=O)(=O)c2ccccc2)c2ccccc12
> 100 µM: SF-295 CNS | SR leukemia | HOP-62 NSCLC | NCI-H23 lung | SNB-19 CNS | K-562 leukemia | SF-539 CNS | SK-MEL-2 melanoma | UACC-62 melanoma | UACC-257 melanoma | NCI-H226 lung | MALME-3M melanoma | HCT-15 colon | CAKI-1 renal

CC1=C(C#N)C(=O)N(/N=C/c2ccc(Cl)cc2)C(=O)/C1=c1\o/c(=C2/C(=O)N(/N=C/c3ccc(Cl)cc3)C(=O)C(C#N)=C2C)c2nccnc12
> 100 µM: SF-295 CNS | SN12C renal | SR leukemia | NCI-H23 lung | SNB-19 CNS | K-562 leukemia | SF-539 CNS | SK-MEL-2 melanoma | UACC-62 melanoma | UACC-257 melanoma | NCI-H226 lung | MALME-3M melanoma | HCT-15 colon | CAKI-1 renal

O=c1c2cc([N+](=O)[O-])cnc2sn1-c1ccc(Oc2ccccc2)cc1
> 100 µM: SF-295 CNS | SN12C renal | SR leukemia | HOP-62 NSCLC | NCI-H23 lung | SNB-19 CNS | SF-539 CNS | SK-MEL-2 melanoma | UACC-62 melanoma | UACC-257 melanoma | NCI-H226 lung | HCT-15 colon
74.9 µM: MALME-3M melanoma

CC/C(=C/OC)P1(=O)OC(C)(C)CN1C(C)(C)C (stereo not drawn)
> 100 µM: SF-295 CNS | SR leukemia | HOP-62 NSCLC | NCI-H23 lung | SNB-19 CNS | K-562 leukemia | SF-539 CNS | SK-MEL-2 melanoma | UACC-62 melanoma | UACC-257 melanoma | NCI-H226 lung | MALME-3M melanoma | HCT-15 colon | CAKI-1 renal

CCC1=NC(N/N=C/c2ccccc2O)=N/C1=C\c1ccccc1O
85.4 µM: MALME-3M melanoma
48.4 µM: UACC-62 melanoma
> 100 µM: SF-295 CNS | SR leukemia | SNB-19 CNS | K-562 leukemia | UACC-257 melanoma | CAKI-1 renal
39.2 µM: HOP-62 NSCLC
> 74.7 µM: NCI-H23 lung
12.6 µM: HCT-15 colon
66.2 µM: SK-MEL-2 melanoma
> 83 µM: SN12C renal
> 69 µM: NCI-H226 lung

CCCN(CCC)C(=S)N/N=C/c1cccc(C)n1
0.457 µM: UACC-257 melanoma
24.5 µM: HCT-15 colon
9.45 µM: UACC-62 melanoma
0.837 µM: NCI-H226 lung
0.376 µM: SR leukemia
0.545 µM: SF-539 CNS
3.13 µM: SN12C renal
4.65 µM: CAKI-1 renal
15 µM: K-562 leukemia
7.53 µM: SF-295 CNS
> 100 µM: NCI-H23 lung | SNB-19 CNS
26.4 µM: SK-MEL-2 melanoma
14.9 µM: MALME-3M melanoma

CCOP(=O)(CCC(O)CNc1nc(N)nc(Cl)c1N=Nc1ccc(Cl)cc1)OCC (stereo not drawn)
37.4 µM: NCI-H23 lung
21.4 µM: MALME-3M melanoma
50.3 µM: SR leukemia
40.2 µM: HOP-62 NSCLC
64.5 µM: NCI-H226 lung
30.2 µM: UACC-62 melanoma
38 µM: SF-295 CNS
29.5 µM: UACC-257 melanoma
42.7 µM: SN12C renal
> 100 µM: K-562 leukemia
24.3 µM: SK-MEL-2 melanoma
19.6 µM: HCT-15 colon
14.5 µM: CAKI-1 renal

COC(=O)CC1CN(C(=O)OCc2ccccc2)C(C)(C)O1 (stereo not drawn)
22.7 µM: NCI-H226 lung
> 100 µM: SF-295 CNS | SN12C renal | SR leukemia | NCI-H23 lung | SNB-19 CNS | K-562 leukemia | SF-539 CNS | SK-MEL-2 melanoma | UACC-62 melanoma | UACC-257 melanoma | MALME-3M melanoma | HCT-15 colon | CAKI-1 renal

COc1ccc(OC)c2c(=O)cc(-c3ccccc3)[nH]c12
> 100 µM: SF-295 CNS | SN12C renal | SR leukemia | HOP-62 NSCLC | NCI-H23 lung | SNB-19 CNS | K-562 leukemia | SK-MEL-2 melanoma | UACC-62 melanoma | UACC-257 melanoma | NCI-H226 lung | MALME-3M melanoma | HCT-15 colon

CC(=O)CCC(=O)CC(O)(C(F)(F)F)C(F)(F)F
43.2 µM: NCI-H23 lung
33.6 µM: HOP-62 NSCLC
27.1 µM: SF-295 CNS
33.7 µM: UACC-257 melanoma
32.9 µM: MALME-3M melanoma
30 µM: SNB-19 CNS
35.4 µM: HCT-15 colon
36.5 µM: SN12C renal
33.4 µM: K-562 leukemia
24.7 µM: NCI-H226 lung
32 µM: SR leukemia | UACC-62 melanoma
31.9 µM: SF-539 CNS

Cc1nc2c(n1CCCl)C(=O)c1ccccc1C2=O
19.2 µM: MALME-3M melanoma
> 100 µM: SN12C renal | SR leukemia | SNB-19 CNS | K-562 leukemia | SF-539 CNS
40.9 µM: HCT-15 colon
44.2 µM: UACC-62 melanoma
62.6 µM: SF-295 CNS
28.9 µM: UACC-257 melanoma
50.1 µM: NCI-H226 lung
62.4 µM: HOP-62 NSCLC
92.2 µM: NCI-H23 lung

Cc1nn(-c2ccccc2)c2nc3c(c(C)nn3-c3ccccc3)c(-c3ccccc3Br)c12
> 100 µM: SF-295 CNS | SN12C renal | SR leukemia | HOP-62 NSCLC | NCI-H23 lung | SNB-19 CNS | K-562 leukemia | SF-539 CNS | UACC-62 melanoma | UACC-257 melanoma | NCI-H226 lung | MALME-3M melanoma | HCT-15 colon | CAKI-1 renal
